Where a SMILES comes first, the peptide text is derived from it. Bridges are numbered along the chain shown (N, C = ends).
Biological target: chymotrypsin (Bos taurus, UniProt P00766)
Test: Determination of enzyme inhibitory activity against chymotrypsin (substrate AAPFpNA, OD 405 nm)
Type: biochemical
Conditions: for IC50: chymotrypsin 30 nM, AAPFpNA 0.5 mM, pH 7.8, 37° C.; for remaining activity at 0.0001 µM: peptide 0.0001 μM; for remaining activity at 0.001 µM: peptide 0.001 μM; for remaining activity at 0.01 µM: peptide 0.01 μM; for remaining activity at 0.02 µM: peptide 0.02 μM; for remaining activity at 0.04 µM: peptide 0.04 μM; for remaining activity at 0.08 µM: peptide 0.08 μM; for remaining activity at 0.1 µM: peptide 0.1 μM; for remaining activity at 1 µM: peptide 1 μM; for remaining activity at 10 µM: peptide 10 μM; for remaining activity at 0.25 µM: peptide 0.25 μM; for remaining activity at 0.5 µM: peptide 0.5 μM; for remaining activity at 100 µM: peptide 100 μM; for remaining activity at 0.05 µM: peptide 0.05 μM
Experimental: The substrates N-succinyl-Ala-Ala-Pro-Phe-p-nitroaniline (AAPFpNA) is used in competitive binding reaction to determine the inhibitory activities against α -chymotrypsin. Experiments for a-chymotrypsin was measured in 20 mM CaCl2, 50 mM Tris-HCl buffer (pH 7.8). The concentration of the peptide was measured using optical density (OD) at 280 nm. The Michaelis constant (Km) of the enzyme hydrolysis substrate is calculated from the initial rate of substrate hydrolysis at 405 nm. The absorbance value of the substrate was measured at 405 nm after complete hydrolysis. All data were processed using nonlinear regression.
(1) Added a total 190 μL of reaction buffer (20 mM CaCl2, 50 mM Tris-HCl (pH 7.8)), different concentrations of anti-chymorypsin peptides (CHs) into the pre-cold 96 well plate, followed by preheating at 37° C. for 5 min and centrifugated at 500 rpm for 1 min and allowed to stand for 4 minutes. Then added 8 μL of 750 nM chymotrypsin and incubated at 37° C. for 10 min, and centrifugated at 500 rpm for 1 min and allowed to stand for 9 minutes. Finally, added 2 μL of 50 mM AAPFpNA, and mixed by centrifugation at 500 rpm for 1 min. The plate was incubated at 37° C. for 90 min, and the absorbance value at 405 nm was measured. Three repetitions were made, and only reaction buffer and substrate were added in the blank control as the minimum absorption value (Min OD 405 nm); Only reaction buffer, enzyme and substrate were added in the negative control as the maximum absorption value (Max OD 405 nm).
(2) In the 200 μL of reaction system, the final concentrations of chymotrypsin and AAPFpNA were 30 nM and 0.5 mM, respectively.
Plotted the residual activity of enzyme with […] to obtain the half inhibitory concentration (IC50) of anti-chymorypsin peptides (CHs). Then, substituted it into the formula […]/(1+S/Km) (S, IC50, and Km were substrate concentration, half inhibitory concentration, and Michaelis constant, respectively) to obtain the inhibition constant Ki of anti-chymorypsin peptides (CHs).

[1] = read-out: Residual activity of chymotrypsin

Row | Ki [nM] | IC50 [nM] | remaining activity at 0.0001 µM [1] [%] | remaining activity at 0.001 µM [1] [%] | remaining activity at 0.01 µM [1] [%] | remaining activity at 0.02 µM [1] [%] | remaining activity at 0.04 µM [1] [%] | remaining activity at 0.08 µM [1] [%] | remaining activity at 0.1 µM [1] [%] | remaining activity at 1 µM [1] [%] | remaining activity at 10 µM [1] [%] | remaining activity at 0.015 µM (peptide 0.015 μM, read-out: Residual activity of chymotrypsin) [%] | IC50 reduced (fold) (relative to CH55) [times] | remaining activity at 0.06 µM (peptide 0.06 μM, read-out: Residual activity of chymotrypsin) [%] | remaining activity at 0.25 µM [1] [%] | remaining activity at 0.5 µM [1] [%] | remaining activity at 100 µM [1] [%] | remaining activity at 0.05 µM [1] [%] | SMILES
1 | 40 | 90 | 104.2 ± 0.8 | 104.5 ± 0.9 | 102 ± 7.6 |  |  |  | 47.6 ± 7.6 | 3 ± 0.2 | 0.7 ± 0.1 |  |  |  | 29.5 ± 4.6 | 7.4 ± 1 | 0 |  | CC[C@H](C)[C@@H]1NC(=O)[C@@H]2CCCN2C(=O)[C@@H]2CCCN2C(=O)[C@H]([C@@H](C)CC)NC(=O)[C@H](CO)NC(=O)[C@H](Cc2ccc(O)cc2)NC(=O)[C@H]([C@@H](C)O)NC(=O)[C@@H](NC(=O)[C@@H](NC(=O)CN)[C@@H](C)O)CSSC[C@@H](C(=O)N[C@@H](CC(N)=O)C(=O)N2CCC[C@H]2C(=O)N[C@@H](CC(N)=O)C(=O)O)NC1=O [CH60] (H-GTCTYSIPPICNPN-OH; disulfide 3-11; C-terminus assumed)
2 | 50 | 120 | 100.9 ± 0.6 | 100.1 ± 0.7 | 97.3 ± 5.4 |  |  |  | 44.2 ± 4.5 | 13.3 ± 1.7 | 1.7 |  |  |  |  | 24.3 ± 2.5 | 0.2 | 86.1 ± 3.3 | CC[C@H](C)[C@@H]1NC(=O)[C@@H]2CCCN2C(=O)[C@@H]2CCCN2C(=O)[C@H]([C@@H](C)CC)NC(=O)[C@H](CO)NC(=O)[C@H](Cc2ccc(O)cc2)NC(=O)[C@H]([C@@H](C)O)NC(=O)[C@@H](NC(=O)[C@@H](NC(=O)CN)[C@@H](C)O)CSSC[C@@H](C(=O)N[C@@H](CC(N)=O)C(=O)N2CCC[C@H]2C(=O)O)NC1=O [CH61] (H-GTCTYSIPPICNP-OH; disulfide 3-11; C-terminus assumed)
3 | 60 | 150 | 100.9 ± 0.8 |  | 102 ± 2.2 |  |  |  | 56.4 ± 2 | 14.2 ± 5.9 | 0.8 ± 0.1 |  |  |  | 40.9 ± 6.8 | 25.1 ± 1.5 | 0.1 | 83.4 ± 8.3 | CC[C@H](C)[C@@H]1NC(=O)[C@@H]2CCCN2C(=O)[C@@H]2CCCN2C(=O)[C@H]([C@@H](C)CC)NC(=O)[C@H](CO)NC(=O)[C@H](Cc2ccc(O)cc2)NC(=O)[C@H]([C@@H](C)O)NC(=O)[C@@H](NC(=O)[C@@H](NC(=O)CN)[C@@H](C)O)CSSC[C@@H](C(=O)N[C@@H](CC(N)=O)C(=O)O)NC1=O [CH62] (H-GTCTYSIPPICN-OH; disulfide 3-11; C-terminus assumed)
4 | 1320 | 3050 |  |  |  |  |  |  |  |  |  |  |  |  |  |  |  |  | CC[C@H](C)[C@@H]1NC(=O)[C@@H]2CCCN2C(=O)[C@@H]2CCCN2C(=O)[C@H]([C@@H](C)CC)NC(=O)[C@H](CO)NC(=O)[C@H](Cc2ccc(O)cc2)NC(=O)[C@H]([C@@H](C)O)NC(=O)[C@@H](NC(=O)[C@@H](N)[C@@H](C)O)CSSC[C@@H](C(=O)N[C@@H](CC(N)=O)C(=O)O)NC1=O [CH63] (H-TCTYSIPPICN-OH; disulfide 2-10; C-terminus assumed)
5 | 400 | 930 |  |  |  |  |  |  |  |  |  |  |  |  |  |  |  |  | CC[C@H](C)[C@@H]1NC(=O)[C@@H]2CCCN2C(=O)[C@@H]2CCCN2C(=O)[C@H]([C@@H](C)CC)NC(=O)[C@H](CO)NC(=O)[C@H](Cc2ccc(O)cc2)NC(=O)[C@H]([C@@H](C)O)NC(=O)[C@@H](NC(=O)[C@@H](N)CCCCN)CSSC[C@@H](C(=O)N[C@@H](Cc2ccccc2)C(=O)O)NC1=O [CH64] (H-KCTYSIPPICF-OH; disulfide 2-10; C-terminus assumed)

Continued, compound first:

Row | SMILES | Ki [nM] | IC50 [nM] | remaining activity at 0.0001 µM [1] [%] | remaining activity at 0.001 µM [1] [%] | remaining activity at 0.01 µM [1] [%] | remaining activity at 0.02 µM [1] [%] | remaining activity at 0.04 µM [1] [%] | remaining activity at 0.08 µM [1] [%] | remaining activity at 0.1 µM [1] [%] | remaining activity at 1 µM [1] [%] | remaining activity at 10 µM [1] [%] | remaining activity at 0.015 µM (peptide 0.015 μM, read-out: Residual activity of chymotrypsin) [%] | IC50 reduced (fold) (relative to CH55) [times] | remaining activity at 0.06 µM (peptide 0.06 μM, read-out: Residual activity of chymotrypsin) [%] | remaining activity at 0.25 µM [1] [%] | remaining activity at 0.5 µM [1] [%] | remaining activity at 100 µM [1] [%] | remaining activity at 0.05 µM [1] [%]
6 | CC[C@H](C)[C@@H]1NC(=O)[C@@H]2CCCN2C(=O)[C@@H]2CCCN2C(=O)[C@H]([C@@H](C)CC)NC(=O)[C@H](CO)NC(=O)[C@H](Cc2ccccc2)NC(=O)[C@H]([C@@H](C)O)NC(=O)[C@@H](NC(=O)[C@H](CCCNC(=N)N)NC(=O)CN)CSSC[C@@H](C(=O)N[C@@H](Cc2ccccc2)C(=O)N2CCC[C@H]2C(=O)N[C@@H](CC(=O)O)C(=O)O)NC1=O [CH54] (H-GRCTFSIPPICFPD-OH; disulfide 3-11; C-terminus assumed) | 10 | 30 | 100.6 ± 0.9 | 101.7 ± 0.6 | 100 ± 2.9 | 68.8 ± 4 | 34.2 ± 3.9 | 15.2 ± 1.9 | 13.8 ± 3.3 | 0.4 ± 0.2 | -0.1 |  |  |  |  |  |  | 
7 | CC[C@H](C)[C@@H]1NC(=O)[C@@H]2CCCN2C(=O)[C@@H]2CCCN2C(=O)[C@H]([C@@H](C)CC)NC(=O)[C@H](CO)NC(=O)[C@H](Cc2ccc(O)cc2)NC(=O)[C@H]([C@@H](C)O)NC(=O)[C@@H](NC(=O)[C@H](CCCNC(=N)N)NC(=O)CN)CSSC[C@@H](C(=O)N[C@@H](Cc2ccccc2)C(=O)N2CCC[C@H]2C(=O)N[C@@H](CC(=O)O)C(=O)O)NC1=O [CH55] (H-GRCTYSIPPICFPD-OH; disulfide 3-11; C-terminus assumed) | 8.6 | 20 | 102.1 ± 1 | 101.6 ± 0.9 |  | 45.8 ± 10 | 21.8 ± 4.2 | 11.6 ± 1.2 | 8 ± 2.4 | 0.9 ± 0.1 | 0.1 | 68.1 ± 3.7 |  |  |  |  |  | 
8 | CC[C@H](C)[C@@H]1NC(=O)[C@@H]2CCCN2C(=O)[C@@H]2CCCN2C(=O)[C@H]([C@@H](C)CC)NC(=O)[C@H](CO)NC(=O)[C@H](Cc2ccc(O)cc2)NC(=O)[C@H]([C@@H](C)O)NC(=O)[C@@H](NC(=O)[C@H](CCCNC(=N)N)NC(=O)CN)CSSC[C@@H](C(=O)N[C@@H](Cc2ccccc2)C(=O)N2CCC[C@H]2C(=O)O)NC1=O [CH56] (H-GRCTYSIPPICFP-OH; disulfide 3-11; C-terminus assumed) | 270 | 620 |  |  |  |  |  |  |  |  |  |  | 30 |  |  |  |  | 
9 | CC[C@H](C)[C@@H]1NC(=O)[C@@H]2CCCN2C(=O)[C@@H]2CCCN2C(=O)[C@H]([C@@H](C)CC)NC(=O)[C@H](CO)NC(=O)[C@H](Cc2ccc(O)cc2)NC(=O)[C@H]([C@@H](C)O)NC(=O)[C@@H](NC(=O)[C@H](CCCNC(=N)N)NC(=O)CN)CSSC[C@@H](C(=O)N[C@@H](Cc2ccccc2)C(=O)O)NC1=O [CH57] (H-GRCTYSIPPICF-OH; disulfide 3-11; C-terminus assumed) | 20 | 40 | 99 ± 1.3 | 100.2 ± 0.3 | 98 ± 5.1 | 66 ± 7.5 | 48.4 ± 5.8 | 19.1 ± 4.6 |  | 0.9 ± 0.3 | -0.2 ± 0.2 |  |  | 38.1 ± 7.9 |  |  |  | 
10 | CC[C@H](C)[C@@H]1NC(=O)[C@@H]2CCCN2C(=O)[C@@H]2CCCN2C(=O)[C@H]([C@@H](C)CC)NC(=O)[C@H](CO)NC(=O)[C@H](Cc2ccc(O)cc2)NC(=O)[C@H]([C@@H](C)O)NC(=O)[C@@H](NC(=O)[C@@H](N)CCCNC(=N)N)CSSC[C@@H](C(=O)N[C@@H](Cc2ccccc2)C(=O)O)NC1=O [CH58] (H-RCTYSIPPICF-OH; disulfide 2-10; C-terminus assumed) | 120 | 270 |  |  |  |  |  |  |  |  |  |  |  |  |  |  |  | 
11 | CC[C@H](C)[C@@H]1NC(=O)[C@@H]2CCCN2C(=O)[C@@H]2CCCN2C(=O)[C@H]([C@@H](C)CC)NC(=O)[C@H](CO)NC(=O)[C@H](Cc2ccccc2)NC(=O)[C@H]([C@@H](C)O)NC(=O)[C@@H](NC(=O)[C@@H](NC(=O)CN)[C@@H](C)O)CSSC[C@@H](C(=O)N[C@@H](CC(N)=O)C(=O)N2CCC[C@H]2C(=O)N[C@@H](CC(N)=O)C(=O)O)NC1=O [CH59] (H-GTCTFSIPPICNPN-OH; disulfide 3-11; C-terminus assumed) | 80 | 180 |  |  |  |  |  |  |  |  |  |  |  |  |  |  |  | 

Reference: US20260242438A1 (INSTITUTE OF MATERIA MEDICA, CHINESE ACADEMY OF MEDICAL …, priority 2022, published 2026)
